Data on two molecules can be found in US20110206779A1, “GASTRIC ULCER THERAPEUTIC AGENT” (priority 2010, published 2011).

Data set [1] in a line: Antacid power, measured according to the pharmacopoeia of Japan. Format: physicochemical.
In data set [2] the test system is water immersion restraint stress ulcer. As to the kind of experiment: Influence on rat water immersion restraint stress ulcer. Particulars: oral, 30 minutes before stress, 7 hours stress; for Length of gastric mucosa impairment: control 14.7 mm. Format: in vivo, Wister rats. An excerpt:
[Influence on Rat Water Immersion Restraint Stress Ulcer]
The powders obtained in Examples 1, 2 and 3, a mixed powder containing the powder obtained in Example 2 and basic zinc carbonate (Zn=58%), the powders obtained in Comparative Examples 1 and 2, lansoprazole as a proton pump inhibitor and sucralfate, which is most highly evaluated as a gastric mucosa protective agent, were used as test specimens. These test specimens were examined for effect on water immersion restraint stress ulcer, which is an acute ulcer model.
Eight Wister rats as a group were preliminarily reared for a few days. The rats were fasted for 24 hours. Then, the rats were placed in a stress cage according to the method of Takagi et al. (Jap, J, Pharacol, 18:9, 1968). The rats were immersed up to xiphoid process parts in a water tank having a temperature of 23° C. and the rats were subjected to stress for 7 hours. Then, their stomachs were taken out under ether anesthesia. About 12 mL of 2% formalin physiological saline solution was injected into each stomach, to fix the stomach. Then, each stomach was cut out along a curvatura ventriculi major side. The length (mm) of mucosa ulcer at a glandular stomach portion was measured.
As to oral administration of the test specimens, 5 mL/kg (rat weight) of a liquid containing a test specimen was administered 30 minutes before the load of the stress. In Control, the same amount of water was administered.

The nature of data set [3]: Measurement of adsorption amount of naphthol yellow S. Format: physicochemical. As to conditions: 1.0 g powder in 500 mL NYS aqueous solution 100 ppm, 30° C., 1 hour. The protocol: [Measurement of Adsorption Amount of Naphthol Yellow S]
1.0 g of a powder sample was added to 500 mL of an aqueous solution of naphthol yellow S (NYS) (concentration 100 ppm). The mixture was stirred at 30° C. for 1 hour and then filtered to obtain a filtrate. The concentration of NYS in the filtrate was measured with a spectrophotometer and the adsorption amount of the sample was obtained.

Regarding `Cc1c(OCC(F)(F)F)ccnc1C[S+]([O-])c1nc2ccccc2[nH]1` (centres unmarked) [Lansoprazole, lansoprazole], the Antacid power in data set [1] was 0 mL/g. Besides, in data set [2] (dosage 40 mg/kg), the Inhibition rate is given as 78% and the “Length of gastric mucosa impairment” value came out at 3.2 mm. Further, in data set [3], the NYS adsorption amount worked out at 0 mg/g.

In the case of sucralfate, the Antacid power in data set [1] was determined as 168 mL/g. Moreover, in data set [2] (dosage 500 mg/kg), the Inhibition rate was 71% and the “Length of gastric mucosa impairment” value was 4.3 mm. Moreover, the NYS adsorption amount in data set [3] was determined as 0.60 mg/g.
